# Measured values reported in US8524902B2, “[1,2,4]triazolo[4,3-f]pteridines useful as inhibitors of protein kinases” (Vertex Pharmaceuticals Incorporated, priority 2006, dated 2013).
# Biological target: T1, Plk1 (Homo sapiens, UniProt P53350)
# T1 construct: in the presence of 15 nM Plk1 (A20-K338)
# Test: Plk1 inhibition assay (radioactive-phosphate incorporation)
# Type: biochemical
# Conditions: Ki(app) from [γ-33P]ATP incorporation, 25° C.
# Procedure: Compounds of the present invention may be evaluated as inhibitors of human PLK kinase using the following assays.
# Compounds were screened for their ability to inhibit Plk1 using a radioactive-phosphate incorporation assay. Assays were carried out in a mixture of 25 mM HEPES (pH 7.5), 10 mM MgCl2, and 1 mM DTT. Final substrate concentrations were 50 μM [γ-33P]ATP (136 mCi 33P ATP/mmol ATP, Amersham Pharmacia Biotech/Sigma Chemicals) and 10 μM peptide (SAM68 protein Δ332-443). Assays were carried out at 25° C. in the presence of 15 nM Plk1 (A20-K338). An assay stock buffer solution was prepared containing all of the reagents listed above, with the exception of ATP and the test compound of interest. 30 μL of the stock solution was placed in a 96 well plate followed by addition of 2 μL of DMSO stock containing serial dilutions of the test compound (typically starting from a final concentration of 10 μM with 2-fold serial dilutions) in duplicate (final DMSO concentration 5%). The plate was pre-incubated for 10 minutes at 25° C. and the reaction initiated by addition of 8 μL [γ33P]ATP (final concentration 50 μM).
# (§1) The reaction was stopped after 60 minutes by the addition of 100 μL 0.14M phosphoric acid. A multiscreen phosphocellulose filter 96-well plate (Millipore, Cat no. MAPHN0B50) was pretreated with 100 μL 0.2M phosphoric acid prior to the addition of 125 μL of the stopped assay mixture. The plate was washed with 4×200 μL 0.2M phosphoric acid. After drying, 100 μL Optiphase ‘SuperMix’ liquid scintillation cocktail (Perkin Elmer) was added to the well prior to scintillation counting (1450 Microbeta Liquid Scintillation Counter, Wallac).
# After removing mean background values for all of the data points, Ki(app) data were calculated from non-linear regression analysis of the initial rate data using the Prism software package (GraphPad Prism version 3.0cx for Macintosh, GraphPad Software, San Diego Calif., USA).
# Compounds were screened for their ability to inhibit Plk1 using a radioactive-phosphate incorporation assay. Assays were carried out in a mixture of 25 mM HEPES (pH 7.5), 10 mM MgCl2, 0.1% BSA, and 2 mM DTT. Final substrate concentrations were 150 μM (350 μM for determining values of <1 nM) [γ-33P]ATP (115 mCi 33P ATP/mmol ATP, Amersham Pharmacia Biotech/Sigma Chemicals) and 300 μM (450 μM for determining values of <1 nM) peptide (KKKISDELMDATFADQEAK) SEQ. ID NO. 1. Assays were carried out at 25° C. in the presence of 4 nM (1 nM for determining values of <1 nM) Plk1. An assay stock buffer solution was prepared containing all of the reagents listed above, with the exception of ATP and the test compound of interest. 30 μL of the stock solution was placed in a 96 well plate followed by addition of 2 μL of DMSO stock containing serial dilutions of the test compound (typically starting from a final concentration of 10 μM with 2-fold serial dilutions) in duplicate (final DMSO concentration 5%). The plate was pre-incubated for 10 minutes at 25° C. and the reaction initiated by addition of 8 μl [γ-33P]ATP (final concentration 150 μM (350 μM for determining values of <1 nM))).
# as §1, with “90” for “60”, “minutes (240 minutes for determining values of <1 nM)” for “minutes”
# T1 sequence (P53350 20-338): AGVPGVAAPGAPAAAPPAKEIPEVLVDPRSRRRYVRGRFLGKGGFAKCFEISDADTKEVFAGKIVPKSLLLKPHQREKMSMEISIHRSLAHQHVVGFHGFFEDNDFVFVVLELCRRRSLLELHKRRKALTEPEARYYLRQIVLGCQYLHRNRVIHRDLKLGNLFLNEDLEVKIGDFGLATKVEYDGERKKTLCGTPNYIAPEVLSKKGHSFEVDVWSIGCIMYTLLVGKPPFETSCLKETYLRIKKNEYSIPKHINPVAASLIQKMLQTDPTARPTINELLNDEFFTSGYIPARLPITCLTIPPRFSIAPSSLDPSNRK
row,Ki,Compound
1,< 10 nM,"CC[C@@H]1c2nncn2-c2cnc(Nc3ccc(N4CCN(C)CC4)nc3)nc2N1C1CCCC1 [Compound I-41, (R)-5-cyclopentyl-4-ethyl-N-(6-(4-methylpiperazin-1-yl)pyridin-3-yl)-4,5-dihydro-[1,2,4]triazolo[4,3-f]pteridin-7-amine]"
2,< 10 nM,"CC[C@@H]1c2nccn2-c2cnc(Nc3ccc(C(=O)NC)cc3OC)nc2N1C1CCCC1 [Compound I-7, 4-((R)-5-cyclopentyl-6-ethyl-5,6-dihydroimidazo[1,2)pteridin-3-ylamino)-3-methoxy-N-methylbenzamide]"
3,< 10 nM,"CC[C@@H]1c2nncn2-c2cnc(Nc3ccc(N4CCOCC4)cc3)nc2N1C1CCCC1 [Compound I-34, (R)-5-cyclopentyl-4-ethyl-N-(4-morpholinophenyl)-4,5-dihydro-[1,2,4]triazolo[4,3-f]pteridin-7-amine]"
4,10 to 100 nM,"CC[C@@H]1c2nncn2-c2cnc(NCc3ccccc3)nc2N1C1CCCC1 [Compound I-31, (R)—N-benzyl-5-cyclopentyl-4-ethyl-4,5-dihydro-[1,2,4]triazolo[4,3-f]pteridin-7-amine]"
5,< 10 nM,"CC[C@@H]1c2nncn2-c2cnc(Nc3ccc(C(=O)NC)cc3COC)nc2N1C1CCCC1 [Compound I-30, (R)-4-(5-cyclopentyl-4-ethyl-4,5-dihydro-[1,2,4]triazolo[4,3-f]pteridin-7-ylamino)-3-(methoxymethyl)-N-methylbenzamide]"
6,< 10 nM,"CC[C@@H]1c2nncn2-c2cnc(Nc3ccc(C(=O)NC4CC4)cc3)nc2N1C1CCCC1 [Compound I-11, (R)-4-(5-cyclopentyl-4-ethyl-4,5-dihydro-[1,2,4]triazolo[4,3-f]pteridin-7-ylamino)-N-cyclopropylbenzamide]"
7,< 10 nM,"CC[C@@H]1c2nncn2-c2cnc(Nc3ccc(C(=O)NC)cc3F)nc2N1C1CCCC1 [Compound I-16, (R)-4-(5-cyclopentyl-4-ethyl-4,5-dihydro-[1,2,4]triazolo[4,3-f]pteridin-7-ylamino)-3-fluoro-N-methylbenzamide]"
8,< 10 nM,"CC[C@@H]1c2nncn2-c2cnc(Nc3ccc(N4CCCC4)cc3)nc2N1C1CCCC1 [Compound I-42, (R)-5-cyclopentyl-4-ethyl-N-(4-(pyrrolidin-1-yl)phenyl)-4,5-dihydro-[1,2,4]triazolo[4,3-f]pteridin-7-amine]"
9,< 10 nM,"CC[C@@H]1c2nncn2-c2cnc(Nc3ccc(N4CCN(C)CC4)cc3)nc2N1C1CCCC1 [Compound I-32, (R)-5-cyclopentyl-4-ethyl-N-(4-(4-methylpiperazin-1-yl)phenyl)-4,5-dihydro-[1,2,4]triazolo[4,3-f]pteridin-7-amine]"
10,< 10 nM,"CCNC(=O)c1ccc(Nc2ncc3c(n2)N(C2CCCC2)[C@H](CC)c2nncn2-3)c(F)c1 [Compound I-19, (R)-4-(5-cyclopentyl-4-ethyl-4,5-dihydro-[1,2,4]triazolo[4,3-f]pteridin-7-ylamino)-N-ethyl-3-fluorobenzamide]"
